The IC50 is the midpoint of a concentration-inhibition curve.

One experiment has as its target T1, Faah (Homo sapiens, UniProt O00519).
T1 construct: purchased Cayman Chemical
T1 sequence (O00519 1-579): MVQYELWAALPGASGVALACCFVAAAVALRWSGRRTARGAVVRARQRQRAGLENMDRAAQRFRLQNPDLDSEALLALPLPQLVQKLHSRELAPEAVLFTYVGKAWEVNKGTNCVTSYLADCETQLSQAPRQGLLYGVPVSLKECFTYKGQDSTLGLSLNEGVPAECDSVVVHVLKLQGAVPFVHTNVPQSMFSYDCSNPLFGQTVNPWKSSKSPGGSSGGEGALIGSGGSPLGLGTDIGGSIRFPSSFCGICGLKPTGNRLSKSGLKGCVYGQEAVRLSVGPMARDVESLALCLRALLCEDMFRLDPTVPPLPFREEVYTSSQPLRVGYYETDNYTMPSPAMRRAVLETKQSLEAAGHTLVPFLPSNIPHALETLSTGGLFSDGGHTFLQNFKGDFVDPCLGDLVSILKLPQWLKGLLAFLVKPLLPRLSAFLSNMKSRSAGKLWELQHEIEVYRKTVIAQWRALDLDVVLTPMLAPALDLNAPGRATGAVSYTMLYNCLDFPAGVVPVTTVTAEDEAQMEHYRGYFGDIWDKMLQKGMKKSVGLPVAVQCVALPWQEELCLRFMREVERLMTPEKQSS
The experiment in a line: FAAH Inhibitor Screening Assay Kit (Faah). It is filed as biochemical. Conditions: target Faah; mean ± SD of three independent repeats, Bliss method, eight data points. As for the experimental part: (§1) To validate the practicability of WES model, we randomly selected Enpp2, Faah, PTGS2, PPARG, and REN, the five inflammation-related targets, and predicted their direct ligand-target interactions. The 24 top-scoring (hybrid-WES) and commercially available drug-target interactions (Table 3) were tested by the ligand-binding assays.
(§2) Enpp2 (Autotaxin Inhibitor Screening Assay Kit), Faah (FAAH Inhibitor Screening Assay Kit), PTGS2 (COX Inhibitor Screening Assay Kit), PPARG (PPARγ Ligand Screening Assay Kit), and REN (Renin Inhibitor Screening Assay Kit) were purchased from Cayman Chemical, Ann Arbor, MI, USA. […] The activity of targets was detected according to manufacturer’s instructions. IC50 values were determined using the Bliss method according to the eight data points per drug. The same drug-target interaction was repeated independently three times to obtain a mean IC50 value and its standard deviation.

The target in a further experiment is T2, REN (Homo sapiens, UniProt P00797).
T2 construct: purchased Cayman Chemical
T2 sequence (P00797 67-406): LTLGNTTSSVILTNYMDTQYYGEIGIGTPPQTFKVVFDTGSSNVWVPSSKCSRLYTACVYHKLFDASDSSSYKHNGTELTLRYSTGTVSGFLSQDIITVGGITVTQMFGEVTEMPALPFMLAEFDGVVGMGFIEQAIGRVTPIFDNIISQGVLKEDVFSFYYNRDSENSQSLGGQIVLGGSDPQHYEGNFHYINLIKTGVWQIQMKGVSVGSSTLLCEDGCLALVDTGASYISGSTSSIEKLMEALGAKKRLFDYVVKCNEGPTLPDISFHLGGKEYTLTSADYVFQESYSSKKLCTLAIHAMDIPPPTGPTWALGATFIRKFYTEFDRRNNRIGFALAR
Briefly: Renin Inhibitor Screening Assay Kit (REN). It is filed as biochemical. Conditions: target REN; mean ± SD of three independent repeats, Bliss method, eight data points. As to the method:
as §1, §2

A further experiment deals with T3, PPARG (Homo sapiens, UniProt P37231).
T3 sequence (P37231 1-505): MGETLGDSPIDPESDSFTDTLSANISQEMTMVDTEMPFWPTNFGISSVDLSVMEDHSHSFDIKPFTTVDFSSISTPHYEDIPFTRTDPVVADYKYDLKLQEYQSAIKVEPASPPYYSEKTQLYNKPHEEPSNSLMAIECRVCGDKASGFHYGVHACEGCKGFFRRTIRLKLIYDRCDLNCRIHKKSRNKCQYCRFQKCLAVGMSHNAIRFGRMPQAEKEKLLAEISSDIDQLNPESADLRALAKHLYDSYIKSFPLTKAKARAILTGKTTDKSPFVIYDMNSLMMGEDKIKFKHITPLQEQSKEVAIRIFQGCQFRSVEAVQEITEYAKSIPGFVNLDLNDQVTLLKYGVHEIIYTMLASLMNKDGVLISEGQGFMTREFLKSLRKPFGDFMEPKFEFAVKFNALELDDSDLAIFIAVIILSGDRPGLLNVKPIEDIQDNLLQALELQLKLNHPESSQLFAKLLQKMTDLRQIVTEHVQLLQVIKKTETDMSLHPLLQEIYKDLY
Briefly: PPARγ Ligand Screening Assay Kit (PPARG). It is filed as binding. Conditions: target PPARG; mean ± SD of three independent repeats, Bliss method, eight data points. As to the method:
as §1, §2

For the next experiment, the target named is T4, Enpp2 (Homo sapiens, UniProt Q13822).
T4 construct: purchased Cayman Chemical
Briefly: Autotaxin Inhibitor Screening Assay Kit (Enpp2). It counts as biochemical. As to the method: as §1, §2

In the next experiment the target is T5, PTGS2 (Homo sapiens, UniProt P35354).
T5 construct: purchased Cayman Chemical
T5 sequence (P35354 18-604): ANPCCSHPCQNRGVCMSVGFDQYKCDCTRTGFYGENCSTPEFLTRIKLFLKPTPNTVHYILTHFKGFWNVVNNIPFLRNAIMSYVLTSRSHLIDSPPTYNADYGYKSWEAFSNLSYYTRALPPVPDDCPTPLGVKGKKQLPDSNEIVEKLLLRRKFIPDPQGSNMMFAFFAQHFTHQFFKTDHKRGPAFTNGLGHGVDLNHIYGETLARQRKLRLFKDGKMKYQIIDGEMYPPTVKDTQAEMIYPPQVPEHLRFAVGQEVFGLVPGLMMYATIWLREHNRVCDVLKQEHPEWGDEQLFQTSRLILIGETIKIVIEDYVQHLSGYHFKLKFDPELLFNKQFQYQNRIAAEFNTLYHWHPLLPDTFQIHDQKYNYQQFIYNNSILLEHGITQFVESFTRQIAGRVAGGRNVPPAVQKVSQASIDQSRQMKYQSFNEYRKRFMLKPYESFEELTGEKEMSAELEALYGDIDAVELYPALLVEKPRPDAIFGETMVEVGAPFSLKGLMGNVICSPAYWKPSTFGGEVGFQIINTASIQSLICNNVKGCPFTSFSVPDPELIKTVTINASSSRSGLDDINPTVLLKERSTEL
The experiment in a line: COX Inhibitor Screening Assay Kit (PTGS2). It is filed as biochemical. Particulars: target PTGS2; mean ± SD of three independent repeats, Bliss method, eight data points. As for the experimental part:
as §1, §2

[1] abbreviates: target Enpp2, mean ± SD of three independent repeats, Bliss method, eight data points, read-out: IC50 (μM):mean ± SD.

Several values for one entry are separate records, joined by “and”; a condition that tells them apart may be missing. Equal values may be shown once. Read-outs that look alike come from different tables or passages of the source.

With `CC/C=C\C/C=C\C/C=C\CCCCCCCC(=O)O` [Alpha-linolenic acid], on Faah, the concentration for half-maximal inhibition (IC50) is 43.9 µM and 53.9 µM.
In turn, `CC(C)C[C@H](NC(=O)[C@H](CCc1ccccc1)NC(=O)CN1CCOCC1)C(=O)N[C@@H](Cc1ccccc1)C(=O)N[C@@H](CC(C)C)C(=O)[C@@]1(C)CO1` [Carfilzomib] showed an IC50 against REN of 22 ± 6.4 µM.
On to `COC(=O)CCc1ccc(OCC(O)CNC(C)C)cc1` (stereo not drawn) [Esmolol], for which half-maximal inhibition at PPARG (IC50) was put at 40.8 ± 6.5 µM.
For `CCCCCCCCc1ccc(CCC(N)(CO)CO)cc1` [Fingolimod], the IC50 at Enpp2 (setting [1]) was 115 ± 5.8 µM.
`CCN(CC)CC(=O)OCC(=O)[C@@]1(O)CC[C@H]2[C@@H]3CCC4=CC(=O)CC[C@]4(C)[C@H]3[C@@H](O)C[C@@]21C` [Hydrocortamate]: the IC50 on Enpp2 (setting [1]) is 218 ± 6.4 µM.
In turn, `CC(C)(C)NC(=O)[C@@H]1CN(Cc2cccnc2)CCN1C[C@@H](O)C[C@@H](Cc1ccccc1)C(=O)N[C@H]1c2ccccc2C[C@H]1O` [Indinavir] returned an IC50 at REN of 44.3 ± 12.1 µM.
On the same count and under the same terms, next, `Cc1cccc(C)c1OCC(=O)N[C@@H](Cc1ccccc1)[C@@H](O)C[C@H](Cc1ccccc1)NC(=O)[C@H](C(C)C)N1CCCNC1=O` [Lopinavir]: 49.3 ± 10.3 µM.
`C/C(=C\C(=O)OCCCCCCCCC(=O)O)C[C@@H]1OC[C@H](C[C@@H]2O[C@H]2[C@@H](C)[C@H](C)O)[C@@H](O)[C@H]1O` [Mupirocin]: half-maximal inhibition at PTGS2 (IC50) required 123 ± 7.4 µM.
Still for that read-out and setting: next, `CC[C@H](C)C(=O)O[C@H]1C[C@H](O)C=C2C=C[C@H](C)[C@H](CC[C@@H](O)C[C@@H](O)CC(=O)O)[C@H]21` [Pravastatin]: 199 ± 12.3 µM.
The same measure, in the same setting: with `Cc1c(C(=O)NN2CCCCC2)nn(-c2ccc(Cl)cc2Cl)c1-c1ccc(Cl)cc1` [Rimonabant] the figure was 138 ± 3.5 µM.
Compound `CC(=O)OCC(=O)NCCCOc1cccc(CN2CCCCC2)c1` [Roxatidine acetate] came in with an IC50 against Faah of 34.5 ± 1.5 µM.
As for `CC(C)(C)NC(=O)[C@@H]1C[C@@H]2CCCC[C@@H]2CN1C[C@@H](O)[C@H](Cc1ccccc1)NC(=O)[C@H](CC(N)=O)NC(=O)c1ccc2ccccc2n1` [Saquinavir], half-maximal inhibition on REN (IC50) required 69.1 ± 4.2 µM.
With `CCCCC[C@H](O)CC[C@@H]1[C@H]2Cc3cccc(OCC(=O)O)c3C[C@H]2C[C@H]1O` [Treprostinil], on PPARG, inhibition was half-maximal at 69 ± 17.5 µM (IC50) and the “IC50 (μM):mean ± SD” value is recorded as “micromolar concentration range”.
`CN[C@H](CC(C)C)C(=O)N[C@H]1C(=O)N[C@@H](CC(N)=O)C(=O)N[C@H]2C(=O)N[C@H]3C(=O)N[C@H](C(=O)N[C@H](C(=O)O)c4cc(O)cc(O)c4-c4cc3ccc4O)[C@H](O)c3ccc(c(Cl)c3)Oc3cc2cc(c3O[C@@H]2O[C@H](CO)[C@@H](O)[C@H](O)[C@H]2O[C@H]2C[C@](C)(N)[C@H](O)[C@H](C)O2)Oc2ccc(cc2Cl)[C@H]1O` [Vancomycin] yielded an IC50 against Enpp2 of 68.5 ± 7 µM.
Take Cetrorelix (AFASYRLRPA): the half-inhibitory concentration (IC50) in the experiment with REN was determined as 156 ± 3.7 µM.
Consider Felypressin (CFFQNCPKG), for which 4.5 ± 7.1 µM corresponded to half-maximal inhibition in the experiment with REN (IC50).
Consider Pasireotide, for which the IC50 with Enpp2 (setting [1]) was 73.3 ± 9.7 µM.
